This assay concerns the target T1, recombinant human mGluR2 (Homo sapiens, UniProt Q14416).
T1 construct: expressed in transfected cells
The experiment in a line: FLIPR assay (Ca2+ mobilization), potentiation of the mGluR2 receptor. Conditions: CHO dhfr- cells expressing human mGluR2 and Gα16; potentiation after EC20 glutamate (900 nM). In kind it is cell-based. How it is done: Inhibition constants are determined as follows. The compounds of the present invention may be tested in a […] (FLIPR) based assay. This assay is a common functional assay to monitor Ca^2+ mobilization in whole cells expressing recombinant receptor coupled with a promiscuous G-protein. CHO dhfr-cells stably expressing recombinant human mGluR2 and Gα16 loaded with Fluo-4 AM (Invitrogen, Carlsbad Calif.) are treated with dose responses of compounds and the Ca^2+ response is monitored on a FLIPR384 (Molecular Devices, Sunnydale Calif.) for agonist activity. The potentiation response is monitored after a subsequent addition of an EC20 concentration of glutamate (900 nM). The maximum calcium response at each concentration of compound for agonist or potentiation are plotted as dose responses and the curves are fitted with a four parameters logistic equation giving EC50 and Hill coefficient using the iterative non linear curve fitting software program.
A general note: Calcium flux is commonly read through the fluorescence of an indicator in the cells.
T1 sequence (Q14416 19-872): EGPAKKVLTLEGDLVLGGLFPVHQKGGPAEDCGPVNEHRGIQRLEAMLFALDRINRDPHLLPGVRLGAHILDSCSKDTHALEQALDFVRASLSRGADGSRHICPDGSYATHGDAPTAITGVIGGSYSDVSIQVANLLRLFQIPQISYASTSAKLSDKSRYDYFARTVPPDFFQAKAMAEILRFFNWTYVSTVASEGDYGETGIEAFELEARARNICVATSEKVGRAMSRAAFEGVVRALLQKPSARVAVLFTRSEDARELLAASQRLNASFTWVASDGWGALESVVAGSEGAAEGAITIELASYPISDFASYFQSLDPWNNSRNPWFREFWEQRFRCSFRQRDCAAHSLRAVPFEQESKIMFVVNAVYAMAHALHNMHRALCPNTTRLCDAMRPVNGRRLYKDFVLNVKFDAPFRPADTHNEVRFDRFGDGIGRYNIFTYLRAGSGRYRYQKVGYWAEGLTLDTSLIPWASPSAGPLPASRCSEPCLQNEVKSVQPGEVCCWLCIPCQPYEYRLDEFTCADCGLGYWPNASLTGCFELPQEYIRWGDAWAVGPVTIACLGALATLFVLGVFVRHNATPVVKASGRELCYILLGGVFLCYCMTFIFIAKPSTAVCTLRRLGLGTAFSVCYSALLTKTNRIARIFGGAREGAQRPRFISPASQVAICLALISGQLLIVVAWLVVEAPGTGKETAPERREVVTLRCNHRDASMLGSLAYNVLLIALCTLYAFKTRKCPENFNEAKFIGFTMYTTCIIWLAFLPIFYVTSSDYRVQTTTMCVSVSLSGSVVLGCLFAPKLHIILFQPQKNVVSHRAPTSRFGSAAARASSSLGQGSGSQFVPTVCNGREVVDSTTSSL
As usually defined, the EC50 is the concentration that produces a half-maximal response. For `CC(C)(C)c1ccc(OC[C@@H]2Cn3c(nc4ccccc43)O2)cc1` [Example 1-4, (2S)-2-[(4-tert-butylphenoxy)methyl]-2,3-dihydro[1,3]oxazolo[3,2-a]benzimidazole], the EC50 was determined as 11 nM. In the case of `CC(=O)c1cccc(OC[C@@H]2Cn3c(nc4ccccc43)O2)c1` [Example 1-5, 1-{3-[(2S)-2,3-dihydro[1,3]oxazolo[3,2-a]benzimidazol-2-ylmethoxy]phenyl}ethanone], the EC50 is 522 nM. For `Cn1nccc1-c1ccc(OC[C@@H]2Cn3c(nc4ccccc43)O2)cc1` [Example 2-1, (2S)-2-{[4-(1-methyl-1H-pyrazol-5-yl)phenoxy]methyl}-2,3-dihydro[1,3]oxazolo[3,2-a]benzimidazole], the 50% effective concentration (EC50) worked out at 137 nM. Next, `CC(C)(c1ccc(OC[C@@H]2Cn3c(nc4ccccc43)O2)cc1)C(F)(F)F` [Example 3-5, (2S)-2-{[4-(2,2,2-trifluoro-1,1-dimethylethyl)phenoxy]methyl}-2,3-dihydro[1,3]oxazolo[3,2-a]benzimidazole]: 12 nM; `Clc1cccc(OC[C@@H]2Cn3c(nc4ccccc43)O2)c1` [Example 3-9, (2S)-2-[(3-chlorophenoxy)methyl]-2,3-dihydro[1,3]oxazolo[3,2-a]benzimidazole]: 37 nM. Consider `c1ccc(OC[C@@H]2Cn3c(nc4ccccc43)O2)cc1` [Example 3-20, (2S)-2-(phenoxymethyl)-2,3-dihydro[1,3]oxazolo[3,2-a]benzimidazole, reference compound], for which the EC50 is 235 nM. Under `C[Si](C)(C)c1ccc(OC[C@@H]2Cn3c(nc4ccccc43)O2)cc1` [Example 4-1, (2S)-2-{[4-(trimethylsilyl)phenoxy]methyl}-2,3-dihydro[1,3]oxazolo[3,2-a]benzimidazole] stands 27 nM.

These data come from patent US20110065669A1, “OXAZOLOBENZIMIDAZOLE DERIVATIVES” (Merck Sharp & Dohme Corp., priority 2008, published 2011).
